From US20230278972A1, “SUBSTITUTED HALOALKYL SULFONANILIDE HERBICIDES” (FMC Corporation, priority 2020, published 2023)

Columns and labels:
Type in all cases: in vivo
[1] = system: barnyardgrass (Echinochloa crus-galli); assay: Test A preemergence, barnyardgrass; conditions: Preemergence; for Plant response rating, Barnyardgrass: 0 to 100 scale (0 no effect, 100 complete control); for Barnyardgrass plant response rating: 125 g ai/ha, visual injury on 0 to 100 scale (0 no effect, 100 complete control), approximately 10 days
How it was run: (§1)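 Pots: loam soil/sand blend. Pre: directed soil spray at planting. Post: plants 2–10 cm, 1–2 leaf stage. Formulation: non-phytotoxic solvent + surfactant.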

kochia (Bassia scoparia) [2] = assay: Test A preemergence, kochia; conditions: Preemergence; for Plant response rating, Kochia: 0 to 100 scale (0 no effect, 100 complete control); for Kochia plant response rating: 125 g ai/ha, visual injury on 0 to 100 scale (0 no effect, 100 complete control), approximately 10 days
How it was run: as §1

[3] = system: ragweed (common ragweed, Ambrosia artemisiifolia); assay: Test A preemergence, ragweed; conditions: Preemergence; for Plant response rating, Ragweed: 0 to 100 scale (0 no effect, 100 complete control); for Ragweed plant response rating: 125 g ai/ha, visual injury on 0 to 100 scale (0 no effect, 100 complete control), approximately 10 days
How it was run: as §1

[4] = system: Ryegrass, Italian (Italian ryegrass, Lolium multiflorum); assay: Test A preemergence, Ryegrass, Italian; conditions: Preemergence; for Plant response rating, Ryegrass, Italian: 0 to 100 scale (0 no effect, 100 complete control); for Ryegrass, Italian plant response rating: 125 g ai/ha, visual injury on 0 to 100 scale (0 no effect, 100 complete control), approximately 10 days
How it was run: as §1

[5] = system: Foxtail, Giant (giant foxtail, Setaria faberi); assay: Test A preemergence, Foxtail, Giant; conditions: Preemergence; for Plant response rating, Foxtail, Giant: 0 to 100 scale (0 no effect, 100 complete control); for Foxtail, Giant plant response rating: 125 g ai/ha, visual injury on 0 to 100 scale (0 no effect, 100 complete control), approximately 10 days
How it was run: as §1

[6] = system: pigweed (Amaranthus retroflexus); assay: Test A preemergence, pigweed; conditions: for Plant response rating, Pigweed: 0 to 100 scale (0 no effect, 100 complete control); for Pigweed plant response rating: 125 g ai/ha, visual injury on 0 to 100 scale (0 no effect, 100 complete control), approximately 10 days
How it was run: (§2)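 Greenhouse pot test in a loam–sand blend; compounds delivered in a non-phytotoxic solvent carrying a surfactant, applied either as a directed spray to soil at seeding or over seedlings 2 to 10 cm high with one to two leaves.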

[7] = system: barnyardgrass (Echinochloa crus-galli); assay: Test A postemergence, barnyardgrass; conditions: Postemergence, 0 to 100 scale (0 no effect, 100 complete control)
How it was run: as §2

kochia (Bassia scoparia) [8] = assay: Test A postemergence, kochia; conditions: Postemergence, 0 to 100 scale (0 no effect, 100 complete control)
How it was run: as §1

[9] = system: ragweed (common ragweed, Ambrosia artemisiifolia); assay: Test A postemergence, ragweed; conditions: Postemergence, 0 to 100 scale (0 no effect, 100 complete control)
How it was run: as §1

[10] = system: Ryegrass, Italian (Italian ryegrass, Lolium multiflorum); assay: Test A postemergence, Ryegrass, Italian; conditions: Postemergence, 0 to 100 scale (0 no effect, 100 complete control)
How it was run: as §1

[11] = system: Foxtail, Giant (giant foxtail, Setaria faberi); assay: Test A postemergence, Foxtail, Giant; conditions: Postemergence, 0 to 100 scale (0 no effect, 100 complete control)
How it was run: as §1

[12] = system: pigweed (Amaranthus retroflexus); assay: Test A postemergence, pigweed; conditions: Postemergence, 0 to 100 scale (0 no effect, 100 complete control)
How it was run: as §1

[13] = system: wheat (Triticum aestivum); assay: Test A postemergence, wheat; conditions: Postemergence, 0 to 100 scale (0 no effect, 100 complete control)
How it was run: as §2

corn (Zea mays) = assay: Test A postemergence, corn; conditions: Postemergence, 0 to 100 scale (0 no effect, 100 complete control)
How it was run: as §1

[14] = system: blackgrass (Alopecurus myosuroides); assay: Test A postemergence, blackgrass; conditions: Postemergence, 0 to 100 scale (0 no effect, 100 complete control)
How it was run: as §1

[15] = system: galium (catchweed bedstraw, Galium aparine); assay: Test A postemergence, galium; conditions: Postemergence, 0 to 100 scale (0 no effect, 100 complete control)
How it was run: as §2

[16] = 1000 g ai/ha, visual injury, approx. 10 days
[17] = 125 g ai/ha, visual injury approx. 10 days
[18] = 500 g ai/ha, visual injury, approx. 10 days
[19] = 31 g ai/ha, visual injury, approx. 10 days
[20] = 500 g ai/ha, visual injury vs untreated controls after approx. 10 days

| Compound | Barnyardgrass plant response rating [1] | Plant response rating, Barnyardgrass ([1]; 500 g ai/ha) | Kochia plant response rating (kochia (Bassia scoparia) [2]) | Plant response rating, Kochia (kochia (Bassia scoparia) [2]; 500 g ai/ha) | Ragweed plant response rating [3] | Plant response rating, Ragweed ([3]; 500 g ai/ha) | Ryegrass, Italian plant response rating [4] | Plant response rating, Ryegrass, Italian ([4]; 500 g ai/ha) | Foxtail, Giant plant response rating [5] | Pigweed plant response rating [6] | Plant response rating, Barnyardgrass [7, 17] | Plant response rating, Kochia (kochia (Bassia scoparia) [8]; [17]) | Plant response rating, Ragweed [9, 17] | Plant response rating, Ryegrass, Italian [10, 17] | Plant response rating, Foxtail, Giant [11, 17] | Plant response rating, Pigweed [12, 17] | Plant response rating, Wheat [13, 17] | Plant response rating, Corn (corn (Zea mays); [17]) | Plant response rating, Blackgrass [14, 17] | Plant response rating, Galium [15, 17] | also measured |
| --- | --- | --- | --- | --- | --- | --- | --- | --- | --- | --- | --- | --- | --- | --- | --- | --- | --- | --- | --- | --- | --- |
| Cc1cc(C)c(C(=O)N2CCC(Cl)CC2)cc1NS(=O)(=O)C(F)(F)F [Compound 242] | – | – | – | – | – | – | – | – | – | – | – | – | – | – | – | – | – | – | – | – | Plant response rating, Barnyardgrass ([1]; 1000 g ai/ha): 100; Plant response rating, Kochia (kochia (Bassia scoparia) [2]; 1000 g ai/ha): 90; Plant response rating, Ragweed ([3]; 1000 g ai/ha): 90; Plant response rating, Ryegrass, Italian ([4]; 1000 g ai/ha): 100; Plant response rating, Foxtail, Giant ([5]; 1000 g ai/ha): 100; Plant response rating, Pigweed ([6]; 1000 g ai/ha): 100; Plant response rating, Barnyardgrass [7, 16]: 90; Plant response rating, Kochia (kochia (Bassia scoparia) [8]; [16]): 80; Plant response rating, Ragweed [9, 16]: 90; Plant response rating, Ryegrass, Italian [10, 16]: 0; Plant response rating, Foxtail, Giant [11, 16]: 90; Plant response rating, Pigweed [12, 16]: 90; Plant response rating, Wheat [13, 16]: 60; Plant response rating, Corn (corn (Zea mays); [16]): 70; Plant response rating, Blackgrass [14, 16]: 40; Plant response rating, Galium [15, 16]: 90 |
| Cc1cc(Cl)c(NS(=O)(=O)C(F)(F)F)cc1C(=O)N1CCSCC1 [Compound 26] | 70 | 100 | 0 | 50 | 20 | 50 | 80 | 100 | 100 | 80 | 20 | 0 | 50 | 0 | 10 | 50 | 40 | 0 | 0 | 70 | Plant response rating, Foxtail, Giant ([5]; 500 g ai/ha): 100; Plant response rating, Pigweed ([6]; 500 g ai/ha): 90; Plant response rating, Barnyardgrass [7, 18]: 70; Plant response rating, Kochia (kochia (Bassia scoparia) [8]; [18]): 10; Plant response rating, Ragweed [9, 18]: 100; Plant response rating, Ryegrass, Italian [10, 18]: 0; Plant response rating, Foxtail, Giant [11, 18]: 40; Plant response rating, Pigweed [12, 18]: 90; Plant response rating, Wheat [13, 18]: 60; Plant response rating, Corn (corn (Zea mays); [18]): 20; Plant response rating, Blackgrass [14, 18]: 30; Plant response rating, Galium [15, 18]: 90 |
| CO[C@@H]1CCCN(C(=O)c2cc(NS(=O)(=O)C(F)(F)F)c(C)cc2C)C1 [Compound 94] | 90 | – | 60 | – | 30 | – | 90 | – | 100 | 100 | 60 | 50 | 40 | 50 | 30 | 80 | 50 | 20 | 20 | 90 | Plant response rating, Barnyardgrass [1, 19]: 10; Plant response rating, Kochia (kochia (Bassia scoparia) [2]; [19]): 0; Plant response rating, Ragweed [3, 19]: 0; Plant response rating, Ryegrass, Italian [4, 19]: 30; Plant response rating, Foxtail, Giant [5, 19]: 50; Plant response rating, Pigweed [6, 19]: 100; Plant response rating, Barnyardgrass ([7]; 31 g ai/ha): 20; Plant response rating, Kochia (kochia (Bassia scoparia) [8]; 31 g ai/ha): 10; Plant response rating, Ragweed ([9]; 31 g ai/ha): 10; Plant response rating, Ryegrass, Italian ([10]; 31 g ai/ha): 20; Plant response rating, Foxtail, Giant ([11]; 31 g ai/ha): 0; Plant response rating, Pigweed ([12]; 31 g ai/ha): 50; Plant response rating, Wheat ([13]; 31 g ai/ha): 10; Plant response rating, Corn (corn (Zea mays); 31 g ai/ha): 0; Plant response rating, Blackgrass ([14]; 31 g ai/ha): 0; Plant response rating, Galium ([15]; 31 g ai/ha): 70 |
| Cc1cc(-c2cc(NS(=O)(=O)C(F)(F)F)c(C)cc2C)c(=O)n(C)n1 [Compound 62] | 100 | 100 | 70 | 90 | 20 | 80 | 40 | 100 | 100 | 50 | 0 | 20 | 0 | 0 | 0 | 20 | 0 | 0 | 0 | 70 | Plant response rating, Foxtail, Giant ([5]; 500 g ai/ha): 100; Plant response rating, Pigweed ([6]; 500 g ai/ha): 90; Barnyardgrass plant response rating [7, 20]: 70; Kochia plant response rating (kochia (Bassia scoparia) [8]; [20]): 40; Ragweed plant response rating [9, 20]: 20; Ryegrass, Italian plant response rating [10, 20]: 20; Foxtail, Giant plant response rating [11, 20]: 80; Pigweed plant response rating [12, 20]: 40; Wheat plant response rating [13, 20]: 60; Corn plant response rating (corn (Zea mays); [20]): 0; Blackgrass plant response rating [14, 20]: 50; Galium plant response rating [15, 20]: 80 |
